Data set [1] concerns bronchoconstrictor response evoked by methacholine. Briefly: Methacholine-evoked bronchoconstriction in anesthetized guinea pigs, intratracheal delivery. The format is in vivo, guinea pigs (Dunkin Hartley). Conditions: 1000 μg/kg IT, 15 minutes, methacholine 10 μg/mL. The procedure:
Studies were conducted with intratracheal (IT) delivery of the construct of formula IV in anesthetized guinea pigs (Dunkin Hartley) challenged with the muscarinic receptor agonist, methacholine. […] The inhibition was maintained for all doses after the 60 minute pretreatment time. The duration of action of 10 μg/kg and 100 μg/kg doses of the construct of formula IV was explored (FIGS. 4C and 4D). For both doses the inhibition extended to 120 minutes post-administration, although it was reduced, with inhibitory effect absent after 240 minutes pretreatment.

Data set [2] concerns the target human NEP (hNEP) (Homo sapiens, UniProt P08473). Kind of data set: Metabolism by human neutral endopeptidase (hNEP) solution at 37° C. Type of data set: in vitro ADME. Conditions: substrate concentration 50 μM; for remaining at 2 h, 50 μM: read-out: percent remaining after 2-hour exposure to hNEP. The procedure: . Pharmacol. 191:341-366 (2009)). A comparison was made between the sensitivity of the construct of formula IV and ANP to metabolism by human NEP (hNEP) (substrate concentration 50 μM). After 2-hour exposure to hNEP solution at 37° C., there was minimal degradation of the construct of formula IV (92% remaining; n=5). In contrast, under these conditions ANP was about 90% degraded after 60 minutes and 100% after 2-hours (n=4). […] Results are shown in FIG. 1; results in FIG. 1 are expressed as the percent of the starting material, and are either the mean of 1-5 experiments or, where error bars are shown, are the mean±standard deviation.

The conditions of data set [3]: Potter et al. 2009; cited from earlier work.
Data set [4] concerns human lung tissues. Kind of data set: Human precision-cut lung slice relaxation, precontracted with carbachol. Type of data set: cell-based.

Positions of bridges follow the written chain, without caps; N, C: chain ends. Non-standard residues stand in square brackets, D forms with d. Residues, ends and D or L forms follow the SMILES beside them. *: point of attachment. X1 = N=C(N)NCCC[C@H]1C(=O)N[C@@H](C(N)=O)CN1*; dNle = CCCC[C@@H](N)C(=O)O; Heptanoyl = CCCCCCC(=O)*

We go through four molecules from patent US8828926B2, “Uses of natriuretic peptide constructs” (priority 2010, dated 2014).

Sequence of human NEP (hNEP) (P08473 whole entry): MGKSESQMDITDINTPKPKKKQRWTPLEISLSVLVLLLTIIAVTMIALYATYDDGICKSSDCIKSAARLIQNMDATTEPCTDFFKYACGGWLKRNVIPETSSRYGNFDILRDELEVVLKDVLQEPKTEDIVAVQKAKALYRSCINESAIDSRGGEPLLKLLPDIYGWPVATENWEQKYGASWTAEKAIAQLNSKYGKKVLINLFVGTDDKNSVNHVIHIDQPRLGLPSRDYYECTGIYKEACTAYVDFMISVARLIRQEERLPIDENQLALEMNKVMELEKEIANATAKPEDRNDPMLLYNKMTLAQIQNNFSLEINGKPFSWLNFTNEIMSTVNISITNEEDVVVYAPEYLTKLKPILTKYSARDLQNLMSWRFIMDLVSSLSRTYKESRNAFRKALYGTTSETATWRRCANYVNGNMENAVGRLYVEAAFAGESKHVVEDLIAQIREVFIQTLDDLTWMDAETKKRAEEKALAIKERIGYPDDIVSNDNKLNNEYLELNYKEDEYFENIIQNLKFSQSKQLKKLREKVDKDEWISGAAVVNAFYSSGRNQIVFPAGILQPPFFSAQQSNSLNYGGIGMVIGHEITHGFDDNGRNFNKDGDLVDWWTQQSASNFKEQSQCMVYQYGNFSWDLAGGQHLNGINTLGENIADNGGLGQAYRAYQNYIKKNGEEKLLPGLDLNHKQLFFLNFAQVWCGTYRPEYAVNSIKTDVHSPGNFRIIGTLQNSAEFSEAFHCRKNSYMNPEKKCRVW

As to `CC(C)(C)NCC(O)c1ccc(O)c(CO)c1` (stereo not shown) [salbutamol], the “maximum inhibition of bronchoconstrictor response” value in data set [1] turned out to be 87±2%.
`CCCCCCC(=O)N[C@H]1CSSC[C@@H](C(=O)N[C@@H](Cc2ccc(O)cc2)C(=O)N2C[C@H](C(N)=O)NC(=O)[C@@H]2CCCNC(=N)N)NC(=O)[C@H](CO)NC(=O)[C@H]([C@@H](C)CC)NC(=O)[C@H](CCCNC(=N)N)NC(=O)[C@H](CC(=O)O)NC(=O)[C@@H](CCCC)NC(=O)[C@H](CCCNC(=N)N)NC(=O)CNC(=O)[C@@H](C)NC(=O)[C@H](Cc2ccccc2)NC(=O)[C@H](Cc2c[nH]cn2)NC1=O` [construct of formula IV] (Heptanoyl-CHF[dA]GR[dNle]DRISCY-X1; disulfide 1-12): the amount remaining at 2 h, 50 μM in data set [2] stood at 92%.
For `CC[C@H](C)[C@@H]1NC(=O)[C@H](CCCNC(=N)N)NC(=O)[C@H](CC(=O)O)NC(=O)[C@H](CC(C)C)NC(=O)[C@H](CCCCN)NC(=O)[C@H](CC(C)C)NC(=O)CNC(=O)[C@H](Cc2ccccc2)NC(=O)[C@@H](NC(=O)CNC(=O)[C@H](CCCCN)NC(=O)[C@H](CO)NC(=O)[C@H](CC(C)C)NC(=O)CN)CSSC[C@@H](C(=O)O)NC(=O)CNC(=O)[C@H](CC(C)C)NC(=O)CNC(=O)[C@H](CO)NC(=O)[C@H](CCSC)NC(=O)[C@H](CO)NC(=O)CNC1=O` [hCNP], the amount remaining at 1 h, 50 μM in data set [2] (60 min, read-out: percent remaining after 60-min incubation with hNEP) came out at 39%. The amount remaining at 2 h, 50 μM in data set [2] is 1%. Also, the “reported human plasma half-life” value in data set [3] is on record as “about 2 minutes”.
With `CC(C)NCC(O)c1ccc(O)c(O)c1` (stereo not shown) [Isoprenaline], the “relaxation of carbachol-induced contraction” value in data set [4] (100 μM, human lung slices) is on record as “about 75%”. Moreover, the Isoproterenol-mediated broncho-dilatation in data set [4] (in the absence of the construct of formula IV, n=4) was 88.2±3.4%.

For orientation: fraction remaining means the share of the starting amount still present when the sample was taken.
